Results on three compounds are retold here after patent publication US10660967B2, “Curcumin conjugates and methods of use thereof” (priority 2016, dated 2020).

Each structure is given as a SMILES string. Like-named read-outs stand apart in the source and are kept apart here.

The test system of data set [1] is Streptococcus pyogenes ATCC19615. Briefly: Antimicrobial MIC, agar dilution.
For data set [2], the system named is Pseudomonas aeruginosa ATCC27853. Briefly: Antimicrobial MIC, agar dilution.
For data set [3], the system named is PHA-stimulated splenocytes. Kind of data set: Proliferative response of PHA-stimulated splenocytes (MTT assay). It is filed as cell-based. The settings on record: PHA 5 μg/ml, 72 hr; compounds at 5 μM (method says 10 μM); ratio of O.D. versus vehicle control. The procedure, abridged:
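Freshly prepared splenocytes (1×10^6 cells/well) were cultured for 72 h at 37° C with compound at 10 μM final, with or without PHA (5 μg/ml). Viability was read by MTT (4 h), with absorbance at 570 nm against 690 nm reference. Stimulation index is the OD ratio of treated versus vehicle cultures.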

Data set [4] concerns PC3 (prostate) carcinoma cell line. Kind of data set: Anti-tumor properties, MTT. Type of data set: cell-based. The settings on record: Homo sapiens.
In data set [5] the test system is Candida albicans (local isolate). Kind of data set: Antimicrobial MIC, agar dilution. The following applies: Candida albicans, read-out: Minimum inhibitory concentration (MIC).
For data set [6], the system named is MCF7 (breast) carcinoma cell line. Briefly: Anti-tumor properties, MTT. It is filed as cell-based. The settings on record: Homo sapiens, MCF7; read-out: IC50 (μM) MCF7 (breast). The procedure, abridged: (§1)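 Cells seeded at 10×10^3 per well for 24 h, then exposed to compound in serum-free medium (final up to 100 μM, 0.5% DMSO vehicle) for 72 h in triplicate. Viability by MTT reduction (4 h, SDS solubilised), absorbance 595 nm/ref 620 nm; IC50 from survival curves.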

Data set [7] concerns HepG2 (hepatocellular) carcinoma cell line. Briefly: Anti-tumor properties, MTT. It is filed as cell-based. The settings on record: Homo sapiens, HepG2; read-out: IC50 (μM) HepG2 (liver). The procedure, abridged:
as §1

The subject of data set [8] is HCT116 (colon) carcinoma cell line. Kind of data set: Anti-tumor properties, MTT. It is filed as cell-based. The following applies: Homo sapiens, HCT-116; read-out: IC50 (μM) HCT116 (colon). The gist of the method: as §1
Data set [9] concerns Salmonella typhi ATCC19430. Briefly: Antimicrobial MIC, agar dilution. It is filed as cell-based. The following applies: Salmonella enterica, read-out: Minimum inhibitory concentration (MIC). In general terms: Agar dilution tests growth on a series of plates holding different concentrations.
The test system of data set [10] is lipopolysaccharide-stimulated peritoneal macrophages. Briefly: Production of nitric oxide by lipopolysaccharide-stimulated peritoneal macrophages (Greiss reagent). The arrangement: Potency (%): % inhibition of nitric oxide production relative to lipopolysaccharide-stimulated macrophages: concentration or dose not given beside the values. The settings on record: LPS-stimulated peritoneal macrophages; for Nitric oxide (nitrite) concentration, μM (average ± SD): 24 h, nitrite by Greiss reagent. Type of data set: cell-based. The gist of the method:
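Macrophages in nitrite-free medium with 0.1% BSA were stimulated with LPS at 0.5–10 ng/ml, some wells also receiving epinephrine, norepinephrine or dopamine at […], for 24 h at 37° C. Nitrite in supernatants was measured with Greiss reagent, 15 min at room temperature, absorbance 532 nm.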

The subject of data set [11] is Staphylococcus aureus ATCC25923. Kind of data set: Antimicrobial MIC, agar dilution.
The next data set concerns gastric mucosa. Kind of data set: Ulcerogenic liability (ulcer index). The settings on record: orally, three successive days, 10 mg/kg indomethacin mol equivalent; for Number of animals with ulcer: 6 animals per group; for Ulcer index: sum of the three values. Type of data set: in vivo, albino mice. The gist of the method: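 Albino mice were fasted 18 h before dosing, and controls got saline with a few drops of Tween 80. Gastric mucosa was checked under a 10× lens for lesions and erosions. The ulcer index combines percentage incidence divided by 10, mean ulcers per stomach and mean severity.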

Data set [12] deals with A-549 (lung) carcinoma cell line. Kind of data set: Anti-tumor properties, MTT. The following applies: Homo sapiens, A549. It is filed as cell-based.
The mark [13] stands for this setting: ATCC19615, 18 h, read-out: Minimum inhibitory concentration (MIC).
The mark [14] stands for this setting: ATCC19615, read-out: Minimum inhibitory concentration (MIC).
Setting [15] is: ATCC27853, 18 h, read-out: Minimum inhibitory concentration (MIC).
Setting [16] is: ATCC27853, read-out: Minimum inhibitory concentration (MIC).
The mark [17] stands for this setting: ATCC25923, 18 h, read-out: Minimum inhibitory concentration (MIC).
The mark [18] stands for this setting: ATCC25923, read-out: Minimum inhibitory concentration (MIC).

What is called IC50 is the point on the concentration scale where inhibition reaches its midpoint. Turning to `COc1cc(/C=C/C(=O)CC(=O)/C=C/c2ccc(OC(=O)CCN)c(OC)c2)ccc1OC(=O)CCN.Cl.Cl` [HCl-β-Ala-Cur, 3,3′-((((1E,6E)-3,5-dioxohepta-1,6-diene-1,7-diyl)bis(2-methoxy-4,1-phenylene))bis(oxy))bis(3-oxopropan-1-aminium) chloride], the MIC in data set [1] (setting [13]) is 1 µg/mL; in [1] (setting [14]), 1.71 µM; in data set [2] (setting [15]), 1 µg/mL; in data set [2] (setting [16]), 1.71 µM; in [5] (18 h), 0.5 µg/mL; in data set [5], 0.857 µM. Besides, the MIC in data set [9] (18 h) worked out at 1 µg/mL; in [9], 1.71 µM; in [11] (setting [17]), 1 µg/mL; in data set [11] (setting [18]), 1.71 µM. For the same compound, the “Stimulation Index (average ± SD)” value in data set [3] came to 1.39 ± 0.98. Besides, the IC50 in [4] worked out at 30.2 µM; in data set [6], 9.36 µM; in [7] it was 36.4 µM; in data set [8], 42.3 µM; in data set [12], 32.4 µM. Also, the “Potency (%): % inhibition of nitric oxide production relative to lipopolysaccharide-stimulated macrophages” value in [10] is reported as 41.68%. In [10], the “Nitric oxide (nitrite) concentration, μM (average ± SD)” value (shortened to “Nitric oxide … (average ± SD)”) turned out to be 15.93 ± 0.29 µM. Besides, the “% Incidence of ulcer divided by 10” value in the data set with gastric mucosa is reported as 0. The “Average of ulcer number” value in the data set on gastric mucosa worked out at 0. For the same compound, the “Average severity of ulcer” value in the data set with gastric mucosa is listed as 0. Moreover, the “Number of animals with ulcer” value with gastric mucosa was 0/6. Moreover, the Ulcer index in the data set with gastric mucosa is 0.

Turning to `COc1cc(/C=C/C(=O)CC(=O)/C=C/c2ccc(OC(=O)CN)c(OC)c2)ccc1OC(=O)CN.Cl.Cl` [HCl-Gly-Cur, 2,2′-((((1E,6E)-3,5-dioxohepta-1,6-diene-1,7-diyl)bis(2-methoxy-4,1-phenylene))bis(oxy))bis(2-oxoethan-1-aminium) chloride], the MIC in [1] (setting [13]) came to 0.25 µg/mL; in data set [1] (setting [14]) it was 0.45 µM; in data set [2] (setting [15]) it was 1 µg/mL; in [2] (setting [16]), 1.8 µM; in data set [5] (18 h) it was 1 µg/mL; in data set [5] it was 1.8 µM. Besides, the MIC in data set [9] (18 h) was 0.25 µg/mL; in [9] it was 0.45 µM; in data set [11] (setting [17]) it was 0.5 µg/mL; in data set [11] (setting [18]) it was 0.9 µM. The “Stimulation Index (average ± SD)” value in data set [3] is 0.99 ± 0.16. In addition, the IC50 in data set [4] was determined as 38.7 µM; in [6] it was 9.15 µM; in [7], 39.8 µM; in data set [8], 36.2 µM; in data set [12] it was 18.9 µM. The “Potency (%): % inhibition of nitric oxide production relative to lipopolysaccharide-stimulated macrophages” value in data set [10] came out at 49.98%. Further, the “Nitric oxide … (average ± SD)” value in data set [10] was found to be 13.66 ± 1.05 µM. The “% Incidence of ulcer divided by 10” value with gastric mucosa came to 0. Also, the “Average of ulcer number” value in the data set on gastric mucosa is given as 0. Also, the “Average severity of ulcer” value in the data set with gastric mucosa was determined as 0. For the same compound, the “Number of animals with ulcer” value with gastric mucosa is listed as 0/6. In addition, the Ulcer index in the data set with gastric mucosa amounted to 0.

`COc1cc(/C=C/C(=O)CC(=O)/C=C/c2ccc(OC(=O)[C@@H](C)N)c(OC)c2)ccc1OC(=O)[C@@H](C)N.Cl.Cl` [HCl-D-Ala-Cur, (2R,2′R)-1,1′-((((1E,6E)-3,5-dioxohepta-1,6-diene-1,7-diyl)bis(2-methoxy-4,1-phenylene))bis(oxy))bis(1-oxopropan-2-aminium) chloride]: the MIC in data set [1] (setting [13]) is 0.25 µg/mL; in data set [1] (setting [14]), 0.428 µM; in data set [2] (setting [15]) it was 1 µg/mL; in data set [2] (setting [16]), 1.71 µM; in [5] (18 h), 0.125 µg/mL; in data set [5] it was 0.214 µM. In addition, the MIC in [9] (18 h) was determined as 0.25 µg/mL; in data set [9] it was 0.428 µM; in data set [11] (setting [17]), 0.125 µg/mL; in data set [11] (setting [18]), 0.214 µM. The “Stimulation Index (average ± SD)” value in data set [3] worked out at 1.35 ± 0.07. The IC50 in data set [4] was 30.7 µM; in [6], 10.4 µM; in data set [7], 34.3 µM; in data set [8], 39.2 µM; in data set [12], 30.9 µM. The “Potency (%): % inhibition of nitric oxide production relative to lipopolysaccharide-stimulated macrophages” value in data set [10] came out at 41.26%. In data set [10], the “Nitric oxide … (average ± SD)” value came out at 16.04 ± 0.46 µM. Further, the “% Incidence of ulcer divided by 10” value in the data set on gastric mucosa stood at 0. In addition, in the data set with gastric mucosa, the “Average of ulcer number” value is reported as 0. The “Average severity of ulcer” value with gastric mucosa is listed as 0. Besides, the “Number of animals with ulcer” value in the data set on gastric mucosa is recorded as 0/6. In addition, in the data set on gastric mucosa, the Ulcer index is reported as 0.
